Experimental findings from ChEMBL document CHEMBL3046105, “Synthesis and antihyperlipidemic efficiency of berberine-based HMG-CoA reductase inhibitor” (Med Chem Res, 2012) are described below.

Data set [1] deals with Oryctolagus cuniculus. Nature of the data set: Toxicity in high fat-high cholesterol fed New Zealand Oryctolagus cuniculus (rabbit) assessed as mortality at 15 mg/kg, po for 40 days. Type of data set: organism-based. On the set-up: dose 15 mg/kg, route oral. Conditions: in vivo, 960 h.
Data set [2] has as its target T1, 3-hydroxy-3-methylglutaryl-coenzyme A reductase (Mus musculus) (UniProt Q01237).
T1 sequence (whole entry): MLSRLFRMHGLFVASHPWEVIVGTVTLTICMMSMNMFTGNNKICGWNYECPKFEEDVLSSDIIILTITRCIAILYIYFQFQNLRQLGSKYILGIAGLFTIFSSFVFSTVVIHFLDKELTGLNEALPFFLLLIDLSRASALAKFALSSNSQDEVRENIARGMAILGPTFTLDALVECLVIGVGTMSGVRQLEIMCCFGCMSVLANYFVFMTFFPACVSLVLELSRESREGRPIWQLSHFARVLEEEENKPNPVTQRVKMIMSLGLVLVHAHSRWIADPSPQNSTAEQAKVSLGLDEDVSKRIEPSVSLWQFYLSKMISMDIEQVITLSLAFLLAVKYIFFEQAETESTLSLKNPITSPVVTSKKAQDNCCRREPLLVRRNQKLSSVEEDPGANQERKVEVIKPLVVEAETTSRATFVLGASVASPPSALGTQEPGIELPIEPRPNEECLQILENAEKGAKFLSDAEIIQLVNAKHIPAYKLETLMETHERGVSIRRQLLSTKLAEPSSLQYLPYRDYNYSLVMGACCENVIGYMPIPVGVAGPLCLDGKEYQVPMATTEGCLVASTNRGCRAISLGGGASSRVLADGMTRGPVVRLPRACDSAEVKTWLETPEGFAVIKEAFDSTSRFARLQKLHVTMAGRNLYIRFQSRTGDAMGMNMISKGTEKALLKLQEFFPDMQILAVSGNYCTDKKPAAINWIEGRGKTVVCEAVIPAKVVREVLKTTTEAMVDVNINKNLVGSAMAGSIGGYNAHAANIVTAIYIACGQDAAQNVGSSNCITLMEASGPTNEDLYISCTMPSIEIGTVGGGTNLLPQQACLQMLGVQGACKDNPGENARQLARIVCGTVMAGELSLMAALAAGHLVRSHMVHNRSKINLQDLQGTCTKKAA
The data set can be described thus: Inhibition of HMGR isolated from Mus musculus (mouse) liver assessed as change in NADPH at 8 umol/l by HPLC analysis.

The test system of data set [3] is Oryctolagus cuniculus. The data set can be described thus: Antihyperlipidemic activity in high fat-high cholesterol fed New Zealand Oryctolagus cuniculus (rabbit) assessed as total cholesterol level in blood at 15 mg/kg, po for 40 days (reference value: 8.89 +/- 0.53 mmol/l). It is filed as functional.
In data set [4] the test system is Oryctolagus cuniculus. Nature of the data set: Antihyperlipidemic activity in high fat-high cholesterol fed New Zealand Oryctolagus cuniculus (rabbit) assessed as triglyceride level in blood at 15 mg/kg, po for 40 days (reference value: 2.11 +/- 0.43 mmol/l). It is filed as functional.
Data set [5] has as its system Oryctolagus cuniculus. Nature of the data set: Antihyperlipidemic activity in high fat-high cholesterol fed New Zealand Oryctolagus cuniculus (rabbit) assessed as low-density lipoprotein-cholesterol level in blood at 15 mg/kg, po for 40 days (reference value: 3.45 +/- 0.56 mmol/l). It is filed as functional.
The nature of data set [6]: Toxicity in Mus musculus Kunming (mouse). Type of data set: organism-based. Conditions: in vivo.
Data set [7] deals with Oryctolagus cuniculus. Nature of the data set: Antihyperlipidemic activity in high fat-high cholesterol fed New Zealand Oryctolagus cuniculus (rabbit) assessed as high-density lipoprotein-cholesterol level in blood at 15 mg/kg, po for 40 days (reference value: 0.67 +/- 0.22 mmol/l). Type of data set: functional.
For data set [8], the system named is Oryctolagus cuniculus. The data set can be described thus: Toxicity in high fat-high cholesterol fed New Zealand Oryctolagus cuniculus (rabbit) assessed as body weight at 15 mg/kg, po for 40 days. It is filed as organism-based. Also noted: dose 15 mg/kg, route oral. Conditions: in vivo, 960 h.
In data set [9] the test system is Oryctolagus cuniculus. Nature of the data set: Antihyperlipidemic activity in high fat-high cholesterol fed New Zealand Oryctolagus cuniculus (rabbit) assessed as total cholesterol level in blood at 4 mg/kg, po for 40 days (reference value: 8.89 +/- 0.53 mmol/l). It is filed as functional.
Data set [10] has as its system Oryctolagus cuniculus. Nature of the data set: Antihyperlipidemic activity in high fat-high cholesterol fed New Zealand Oryctolagus cuniculus (rabbit) assessed as low-density lipoprotein-cholesterol level in blood at 4 mg/kg, po for 40 days (reference value: 3.45 +/- 0.56 mmol/l). Type of data set: functional.
Data set [11] relates to Oryctolagus cuniculus. Nature of the data set: Antihyperlipidemic activity in high fat-high cholesterol fed New Zealand Oryctolagus cuniculus (rabbit) assessed as triglyceride level in blood at 4 mg/kg, po for 40 days (reference value: 2.11 +/- 0.43 mmol/l). It is filed as functional.
For data set [12], the system named is Oryctolagus cuniculus. The data set can be described thus: Antihyperlipidemic activity in high fat-high cholesterol fed New Zealand Oryctolagus cuniculus (rabbit) assessed as high-density lipoprotein-cholesterol level in blood at 4 mg/kg, po for 40 days (reference value: 0.67 +/- 0.22 mmol/l). It is filed as functional.

Take `CCCCCCCCCCCCCCc1c2c(OC)c(OC)ccc2cc2[n+]1CCc1cc3c(cc1-2)OCO3.[Cl-]` [8-TETRADECYL-BERBERINE CHLORIDE]: the Activity entry in data set [1] is “Non-toxic”; in data set [3], 6.02e+06 nmol/L; in [4], 1.73e+06 nmol/L; in [5], 2.41e+06 nmol/L; in data set [7] it was 730000 nmol/L; in data set [8], “Non-toxic”. Further, the inhibition in data set [2] was determined as 11.2%. The LD50 in data set [6] was 803 mg/kg.
Take `CCCCCCCCCCCCCCCCCCc1c2c(OC)c(OC)ccc2cc2[n+]1CCc1cc3c(cc1-2)OCO3.[Cl-]` [8-OCTADECYL-BERBERINE CHLORIDE]: the Activity entry in [1] was “Non-toxic”; in [3] it was 2.37e+06 nmol/L; in [4] it was 1.6e+06 nmol/L; in data set [5], 2.55e+06 nmol/L; in data set [7], 750000 nmol/L; in data set [8], “Non-toxic”. Also, the inhibition in data set [2] is 33%. The molecule further gave an LD50 in [6] greater than 1000 mg/kg.
On to `CCCCCCCCCCCCc1c2c(OC)c(OC)ccc2cc2[n+]1CCc1cc3c(cc1-2)OCO3.[Cl-]` [8-DODECYL-BERBERINE CHLORIDE], for which the Activity result in [1] was “Non-toxic”; in [3], 6.04e+06 nmol/L; in data set [4] it was 1.86e+06 nmol/L; in data set [5], 2.98e+06 nmol/L; in data set [7], 720000 nmol/L; in data set [8] it was “Non-toxic”. Also, the inhibition in data set [2] is 4.2%. For the same molecule, the LD50 in data set [6] is 752 mg/kg.
For the molecule `COc1ccc2cc3[n+](cc2c1OC)CCc1cc2c(cc1-3)OCO2.[Cl-]` [BERBERINE CHLORIDE], the Activity in data set [3] turned out to be 7.94e+06 nmol/L; in [4], 2.02e+06 nmol/L; in data set [5] it was 3.27e+06 nmol/L; in [7] it was 700000 nmol/L. The LD50 in data set [6] came out at 764 mg/kg.
As for `CCCCCCCCc1c2c(OC)c(OC)ccc2cc2[n+]1CCc1cc3c(cc1-2)OCO3.[Cl-]` [8-OCTYL-BERBERINE CHLORIDE], the Activity entry in data set [1] was “Non-toxic”; in [3] it was 6.25e+06 nmol/L; in data set [4] it was 1.95e+06 nmol/L; in [5] it was 3.06e+06 nmol/L; in data set [7] it was 700000 nmol/L; in data set [8], “Non-toxic”. For the same molecule, the LD50 in data set [6] was 534 mg/kg.
`CC[C@H](C)C(=O)O[C@H]1C[C@@H](C)C=C2C=C[C@H](C)[C@H](CC[C@@H]3C[C@@H](O)CC(=O)O3)[C@H]21` [LOVASTATIN]: the inhibition in [2] is 20.2%. Besides, the Activity came out at 2.56e+06 nmol/L in data set [9], 1.85e+06 nmol/L in [10], 1.62e+06 nmol/L in [11] and 780000 nmol/L in data set [12]. The molecule also gave a 50% lethal dose (LD50) in data set [6] greater than 1000 mg/kg.

By inhibition is commonly meant the relative decrease from the control value, in per cent. In general, LD50 refers to the dose at which mortality reaches 50%.
